One data set has as its target T1, human Cdk-4/D1 (Homo sapiens, UniProt P11802).
T1 construct: made in house; host or cells: Sf9 insect cells (baculovirus)
Briefly: Cdk4/Cyclin D1 kinase assay. Conditions: for IC50: phosphorylation of GST-Rb, 32P-ATP filter plate, 30 min at 30° C.; for Ratio of IC50 Cdk2/E:Cdk4/D1: selectivity, Cdk2/E IC50 over Cdk4/D1 IC50. Type of data set: biochemical. The text has this: (§1) Cdk4/Cyclin D1 Kinase Assay and Cdk2/Cyclin E Kinase Assay
(§2) The assays measure phosphorylation of retinoblastoma protein (Rb) by Cdk4 or Cdk2 upon activation by cyclin D1 or cyclin E, respectively, through the transfer of (γ^32P)-phosphate from γ^32P-ATP in a 96-well filter plate assay.
(§3) Cdk4 or Cdk2 was co-expressed with cyclin D1 or cyclin E, respectively, by a baculovirus expression system in insect cells. For this, 1×10^7 Sf9 cells were coinfected with baculoviruses containing human Cdk-4 or 2 and cyclin D1 or E genes and after 72 hours cells were lysed in 500 μl of a lysis buffer (50 mM HEPES (pH 7.5), 10 mM MgCl2, 1 mM DTT, 5 μg/ml of aprotinin, 5 μg/ml of leupeptin, 0.1 mM NaF, 0.2 mM phenylmethylsulfonyl fluoride (PMSF), and sodium orthovanadate). Centrifuged lysate was purified on a GST-sepharose column. Purity of the proteins was checked by SDS-PAGE followed by western blots using specific antibodies (Santacruz Biotec, USA) to Cdk4 or Cdk2.
GST-retinoblastoma (Rb) (aa 776-928) fusion protein is expressed in the bacteria E. coli and purified by GSH-Sepharose affinity chromatography. The GST-Rb bound to these beads served as the substrate in the assay.
(§4) Quantitation was by scintillation detection of (^32P)-GST-Rb in 96-well filter plates using Top Count scintillation 96-well counter (Packard, USA).
The Cdk 4 or Cdk 2 enzyme assay was run in 96-well format using Millipore Multiscreen filtration plates. All assay steps took place in a single filter plate (Unifilter plates, Packard, USA). The filtration wells were pre-wet with kinase buffer (100 μl/well) and the solution was then removed by the application of vacuum, with the filter plate on a vacuum manifold and the vacuum on. 50 μl of GST-Rb bound to GSH-Sepharose beads in kinase buffer (0.5 μg GST-Rb/50 μl) was added to each well and vacuum was applied to removed the buffer. A further 25 μl of a reaction mix containing ATP (cold+hot) and phosphatase inhibitors diluted in kinase buffer were added to each well, followed by the addition of test compound (4× final concentration in kinase buffer) or kinase buffer (control) in an additional 25 μl volume. Finally 50 μl (100 ng) of human Cdk-4/D1 or Cdk-2/E enzyme in kinase buffer was added to each well to initiate the reaction. The reaction was incubated for 30 min at 30° C. After the reaction was complete, vacuum was applied and the plate was washed with the wash buffer (TNEN buffer) three times. The filter plate was air-dried and placed in a Multiscreen adapter plate. To each well, 30 μl Packard Microscint-O cocktail was added and the plate was covered with a Top-Seal A film. The plate was counted in a Packard Top Count Scintillation Counter for 10 min. […]

A further data set addresses T2, human Cdk-2/E (Homo sapiens, UniProt P24941).
T2 construct: made in house; host or cells: Sf9 insect cells (baculovirus)
The data set is described as follows: Cdk2/Cyclin E kinase assay. Format: biochemical. Conditions: phosphorylation of GST-Rb, 32P-ATP filter plate, 30 min at 30° C.
Description: as §1, §2
as §3, with “Cdk2. […]” for “Cdk2.”
as §4
The Cdk 4 or Cdk 2 enzyme assay was run in 96-well format using Millipore Multiscreen filtration plates. […] The plate was counted in a Packard Top Count Scintillation Counter for 10 min. […]

T1 sequence (P11802 whole entry): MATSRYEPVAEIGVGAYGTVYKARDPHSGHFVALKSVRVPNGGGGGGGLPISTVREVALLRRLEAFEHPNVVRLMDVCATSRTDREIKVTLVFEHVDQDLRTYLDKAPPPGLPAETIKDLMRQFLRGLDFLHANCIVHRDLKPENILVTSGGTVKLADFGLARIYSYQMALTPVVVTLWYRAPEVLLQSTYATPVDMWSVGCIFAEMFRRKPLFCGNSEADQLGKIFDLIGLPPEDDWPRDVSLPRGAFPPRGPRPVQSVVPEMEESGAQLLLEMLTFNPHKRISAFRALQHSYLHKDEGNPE
T1 sequence (P24385 whole entry partner): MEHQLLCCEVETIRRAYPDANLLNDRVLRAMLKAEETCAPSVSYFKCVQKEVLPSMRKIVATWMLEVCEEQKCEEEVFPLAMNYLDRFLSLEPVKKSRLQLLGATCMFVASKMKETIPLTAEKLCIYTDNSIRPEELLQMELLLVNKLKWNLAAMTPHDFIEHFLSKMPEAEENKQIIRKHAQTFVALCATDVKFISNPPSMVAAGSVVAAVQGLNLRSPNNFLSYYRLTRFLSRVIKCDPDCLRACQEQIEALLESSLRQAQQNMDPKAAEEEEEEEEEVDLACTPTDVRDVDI

For `COc1ccc(Br)c(-c2cc(=O)c3c(O)cc(O)c([C@@H]4CCN(C)[C@H]4CO)c3o2)c1` (single isomer, unassigned) [Example 36 (Compound A), (+)-trans-2-(2-Bromo-5-methoxy-phenyl)-5,7-dihydroxy-8-(2-hydroxymethyl-1-methyl-pyrrolidin-3-yl)-chromen-4-one], at human Cdk-4/D1, the half-maximal inhibitory concentration (IC50) worked out at 0.08 µM and the “Ratio of IC50 Cdk2/E:Cdk4/D1” value is listed as 75.0. At human Cdk-2/E, this molecule came in with an IC50 of 6 µM.

As for `CN1CC[C@@H](c2c(O)cc(O)c3c(=O)cc(-c4c(F)cccc4F)oc23)[C@@H]1CO` (single isomer, unassigned) [Example 80, (+)-trans-2-(2,6-Difluoro-phenyl)-5,7-dihydroxy-8-(2-hydroxymethyl-1-methyl-pyrrolidin-3-yl)-chromen-4-one], the melting point lay in the range of 242 to 244 °C. Further, on human Cdk-4/D1, inhibition was half-maximal at 0.28 µM (IC50) and the “Ratio of IC50 Cdk2/E:Cdk4/D1” value came to 31.2. The molecule further yielded an IC50 against human Cdk-2/E of 8.75 µM.

In general, IC50 refers to the midpoint of a concentration-inhibition curve. Low values mean greater potency in that assay, high ones weaker potency in that assay. A word on the melting point: it is the temperature of the solid-liquid transition.

Source of the values: patent US7884127B2, “Inhibitors of cyclin dependent kinases and their use” (Pirimal Life Sciences Ltd., priority 2002, dated 2011).
